The values below are quoted from earlier work in patent US20150219673A1, “THE USE OF GENE EXPRESSION PROFILING AS A BIOMARKER FOR ASSESSING THE EFFICACY OF HDAC INHIBITOR TREATMENT IN NEURODEGENERATIVE CONDITIONS” (Massachusetts Institute of Technology, priority 2012, published 2015).

The subject of this series is cognitive function. To be noted: see US 2011/0224303; cited from earlier work.

Regarding `Nc1ccc(C(=O)Nc2ccccc2N)cc1` [dinaline], the “cognitive function in vivo” value is recorded as “improve cognitive function in vivo”.
